According to patent EP0006752A1, “Compositions for the treatment of chronic trypanosomiasis infections” (Merck & Co., Inc., priority 1978, dated 1980):
Values joined by “and” are separate entries in the source; they are usually repeats but may differ in a detail not shown here. Equal entries are not always repeated.

Columns and labels:
T. brucei TREU 667/1 [1] = experiment: Early (3 day old) T. brucei TREU 667/1 infection in mice, cure after i.p. treatment; type: in vivo, Trypanosoma brucei; settings: for Number Cured Out of Total Treated: CFLP mice infected for 3 days
Description: The mice used were adult CFLP females approximately 25-30 g. and maintained on standard laboratory diet throughout the experiments. Two stabilates were used throughout the experiments, the main one was T. brucei TREU 667/1 originally obtained from Dr. A. R. Gray, Edinburgh, and the other T. brucei LUMP 1001 obtained from Professor […], London. These were cryogenically maintained as previously described in Jennings, […], Parasitol. 75, 143-153 (1977). Each mouse was inoculated intraperitoneally with 1 x 10^4 trypanosomes prepared from the stabilate in phosphate glucose saline pH 8.0. Chemotherapy commenced at various times post inoculation. Each mouse was weighed and the requisite dose of drug administered intraperitoneally in a volume of 0.1 ml./5g. body weight. Compounds I, II and III were used in crystalline powder forms. These were first ground finely in an agate mortar and then suspended in physiological saline for intraperitoneal injection. A drop of detergent (Tween 80) was added to the suspensions to facilitate wetting. Care was taken during dispensing that the suspensions were properly dispersed, and because of some slight unavoidable settlement in the syringe, the mice were always injected at random and usually not more than 3 mice were injected from the one syringe full of drug suspension. As the regimen was usually 4 daily doses at the respective drug concentration, any errors were evenly distributed. […] All were prepared according to the manufacturer's instructions and were injected intraperitoneally. The mice were examined for parasites on the day treatment was initiated (usually day 3 or 21 of infection) by examination of a drop of tail blood under x40 objective (wet film technique). […] The three compounds, I, II and III were used at various dose levels against an early infection of T. brucei TREU 667/1 in CFLP. The dose regimen was initiated 3 days after infection and the intraperitoneal injections of drug suspension were given daily.

T. brucei LUMP 1001 [2] = settings: 21 day old infection; Berenil at 40 mg./kg.; cited from earlier work
T. brucei TREU 667/1 [3] = experiment: Chronic (21 day old) T. brucei TREU 667/1 infection in mice, cure/relapse after i.p. treatment; type: in vivo, Trypanosoma brucei; settings: for Number Cured Out of Total Treated: mice infected for 21 days; for time after treatment until signs of relapse: some of the mice treated with the prophylactic drugs (pretreatment experiments of Table 3)
Description: The mice used were adult CFLP females approximately 25-30 g. and maintained on standard laboratory diet throughout the experiments.
Two stabilates were used throughout the experiments, the main one was T. brucei TREU 667/1 originally obtained from Dr. A. R. Gray, Edinburgh, and the other T. brucei LUMP 1001 obtained from Professor W. H. R. Lumsden, London. These were cryogenically maintained as previously described in Jennings, Whitelaw & Urquhart, Parasitol. 75, 143-153 (1977).
Each mouse was inoculated intraperitoneally with 1 x 10^4 trypanosomes prepared from the stabilate in phosphate glucose saline pH 8.0. Chemotherapy commenced at various times post inoculation. Each mouse was weighed and the requisite dose of drug administered intraperitoneally in a volume of 0.1 ml./5g. body weight.
Compounds I, II and III were used in crystalline powder forms. These were first ground finely in an agate mortar and then suspended in physiological saline for intraperitoneal injection. A drop of detergent (Tween 80) was added to the suspensions to facilitate wetting. Care was taken during dispensing that the suspensions were properly dispersed, and because of some slight unavoidable settlement in the syringe, the mice were always injected at random and usually not more than 3 mice were injected from the one syringe full of drug suspension. As the regimen was usually 4 daily doses at the respective drug concentration, any errors were evenly distributed.
The other established drugs used were Berenil (diminazene aceturate, obtained from Fabwerke, Hoechst, Germany, 40 mg./kg. unless otherwise specified), Ethidium (homidium bromide 7.5 mg./kg.) and Prothidium (pyrithidium bromide 10 mg./kg. obtained from Boots Pure Drug Co., England) and Samorin (isometamidium 2 mg./kg. obtained from May & Baker Ltd.). […]
The mice were examined for parasites on the day treatment was initiated (usually day 3 or 21 of infection) by examination of a drop of tail blood under x40 objective (wet film technique). Subsequent to treatment they were examined every 2 days for 6 days and thereafter once per week until relapse occurred or until the experiment was terminated (in some instances 6-7 months).
The initial work with Berenil was carried out using the dose rate of 40 mg./kg. which was the dose of drug used in all the original work on chronic infections.
In addition, groups of mice were given Berenil and the Compound III simultaneously, or one injection of Berenil followed by one injection of Compound III in order to compress the treatment into the minimum number of injections.

T. brucei LUMP 1001 [4] = experiment: Chronic (21 day old) T. brucei LUMP 1001 infection in mice, cure/relapse after i.p. treatment; type: in vivo, Trypanosoma brucei
Description: The mice used were adult CFLP females approximately 25-30 g. and maintained on standard laboratory diet throughout the experiments. Two stabilates were used throughout the experiments, the main one was T. brucei TREU 667/1 originally obtained from Dr. A. R. Gray, Edinburgh, and the other T. brucei LUMP 1001 obtained from Professor […], London. These were cryogenically maintained as previously described in Jennings, […], Parasitol. 75, 143-153 (1977). Each mouse was inoculated intraperitoneally with 1 x 10^4 trypanosomes prepared from the stabilate in phosphate glucose saline pH 8.0. Chemotherapy commenced at various times post inoculation. Each mouse was weighed and the requisite dose of drug administered intraperitoneally in a volume of 0.1 ml./5g. body weight. Compounds I, II and III were used in crystalline powder forms. These were first ground finely in an agate mortar and then suspended in physiological saline for intraperitoneal injection. A drop of detergent (Tween 80) was added to the suspensions to facilitate wetting. Care was taken during dispensing that the suspensions were properly dispersed, and because of some slight unavoidable settlement in the syringe, the mice were always injected at random and usually not more than 3 mice were injected from the one syringe full of drug suspension. As the regimen was usually 4 daily doses at the respective drug concentration, any errors were evenly distributed. […] All were prepared according to the manufacturer's instructions and were injected intraperitoneally. The mice were examined for parasites on the day treatment was initiated (usually day 3 or 21 of infection) by examination of a drop of tail blood under x40 objective (wet film technique). […] It was known that T. brucei LUMP 1001 relapsed after treatment of a 21 day old infection Jennings, […], Parasitol. 75, 143-153 (1977), and indeed tended to relapse earlier after treatment with Berenil at 40 mg./kg. than any of the other stabilates tested (approximately 20 days). The original experiment using 40 mg./kg. Berenil as pre-treatment followed by Compound III was disappointing, as only 3 out of a total of 27 mice appeared to be cured by the various dose regimens. The experiment was therefore repeated increasing the pretreatment dose of Berenil to 60 mg./kg. and 80 mg./kg., the latter being given as two doses of 40 mg./kg. on consecutive days to avoid the possibility of deaths due to the toxicity of Berenil at that dose level in mice. This pretreatment was followed by administration of Compound III at 4 doses of 80 mg./kg. and in both instances where the increased Berenil dose level (60 mg./kg. and 80 mg./kg.) was used, satisfactory permanent cures were accomplished, whereas in the respective controls all of the mice relapsed.

[5] = Berenil 40 mg./kg. day 21, no further treatment
[6] = 4 x 5 mg./kg. daily i.p., cure = no parasites in blood for at least 90 days
[7] = 4 x 20 mg./kg. daily i.p., cure = no parasites in blood for at least 90 days
[8] = single drug 4 x 20 mg./kg. daily i.p.

In the case of `N=C(N)c1ccc(N=NNc2ccc(C(=N)N)cc2)cc1` [Berenil, diminazene aceturate], the “permanent cure of early infections” value (T. brucei TREU 667/1 [1]; early infection, Berenil 5 mg./kg.) is listed as “can be permanently cured”, the “time to relapse after treatment” value (T. brucei LUMP 1001 [2]) is listed as “approximately 20 days” and the “time for which all circulating trypanosomes are cleared from the bloodstream” value (T. brucei TREU 667/1 [3]; 5 mg./kg. Berenil) is listed as “up to 20 days”. The “outcome after treatment” value (T. brucei TREU 667/1 [3]; 21 day old infection, 160 mg./kg. Berenil given subcutaneously) was “relapsed”, the “No. Cured Out of Total Treated” value (T. brucei TREU 667/1 [3]; Berenil 5 mg./kg. day 21, no further treatment) was 0/10 and the “No. Cured Out of Total Treated” value (T. brucei TREU 667/1 [3]; Berenil 5 mg./kg. day 21, then Berenil 5 mg./kg. day 24) was 0/10. The “No. Cured Out of Total Treated” value (T. brucei TREU 667/1 [3]; Berenil 20 mg./kg. day 21, no further treatment) was 0/10, the “No. Cured Out of Total Treated” value (T. brucei TREU 667/1 [3]; [5]) was 1/10 and 1/9 and the cure rate (T. brucei TREU 667/1 [3]; Berenil (40 mg./kg.) given alone, in the particular experiment with the simultaneous group) was 60%. The “outcome after repeated treatment” value (T. brucei TREU 667/1 [3]; infected 21 days, Berenil alone 40 mg./kg., retreated every 30 days for a total of 5 months, a proportion of mice) was “eventually become parasitaemic again”, the “No. Cured Out of Total Treated” value (T. brucei LUMP 1001 [4]; [5]) was 0/10 and 0/9 and the “No. Cured Out of Total Treated” value (T. brucei LUMP 1001 [4]; Berenil 60 mg./kg. day 21, no further treatment) was 0/8. For the same molecule, the “No. Cured Out of Total Treated” value (T. brucei LUMP 1001 [4]; Berenil 80 mg./kg., given as 2 x 40 mg./kg. on day 21 and day 24, no further treatment) was 0/8.

With `Cn1c([N+](=O)[O-])cnc1COC(N)=O` [Compound I, 1-methyl-5-nitroimidazol-2-ylmethylcarbamate] the “Number Cured Out of Total Treated” value (T. brucei TREU 667/1 [1]; [6]) was 0/8 and the “Number Cured Out of Total Treated” value (T. brucei TREU 667/1 [1]; [7]) was 0/8.

For `Cn1c([N+](=O)[O-])cnc1C1=NOC2CCCCC12` (stereo not drawn) [Compound II, 3'-(1-methyl-5-nitroimidazol-2-yl)-4'5'-tetramethylene-Δ^2-isoxazoline], the cure rate (T. brucei TREU 667/1 [1]; 3-day old infection, 4 doses of 80 mg./kg.) was 100%, the “Number Cured Out of Total Treated” value (T. brucei TREU 667/1 [1]; [6]) was 0/8 and the “Number Cured Out of Total Treated” value (T. brucei TREU 667/1 [1]; [7]) was 2/8. The “Number Cured Out of Total Treated” value (T. brucei TREU 667/1 [1]; 4 x 80 mg./kg. daily i.p., separate experiment) was 10/10 and the “Number Cured Out of Total Treated” value (T. brucei TREU 667/1 [3]; [8]) was 0/9.

With `Cn1c([N+](=O)[O-])cnc1C1=NOC2CCCCCCC12` (stereo not drawn) [Compound III] the cure (T. brucei TREU 667/1 [1]; 3-day old infection, 4 doses at 20 mg./kg.) was 100%, the “Number Cured Out of Total Treated” value (T. brucei TREU 667/1 [1]; [6]) was 2/8 and the “Number Cured Out of Total Treated” value (T. brucei TREU 667/1 [1]; [7]) was 8/8. For the same molecule, the “period after treatment until the last of the mice relapsed” value (T. brucei TREU 667/1 [3]; established (21 day) infection, 4 doses at 80 mg./kg.) was 42 days, the “Number Cured Out of Total Treated” value (T. brucei TREU 667/1 [3]; [8]) was 0/9 and 0/10 and 0/8 and the “Number Cured Out of Total Treated” value (T. brucei TREU 667/1 [3]; single drug 4 x 80 mg./kg. daily i.p.) was 0/10. The “No. Cured Out of Total Treated” value (T. brucei TREU 667/1 [3]; no pretreatment, III 4 x 20 mg./kg. commencing day 24) was 0/8 and the “No. Cured Out of Total Treated” value (T. brucei LUMP 1001 [4]; no pretreatment, III 4 x 80 mg./kg. commencing day 24) was 0/10.

With `CC[n+]1c(-c2ccccc2)c2cc(N)ccc2c2ccc(N)cc21` [Ethidium, homidium bromide] the “No. Cured Out of Total Treated” value (T. brucei TREU 667/1 [3]; Ethidium 7.5 mg./kg. day 21, no further treatment) was 0/10.

In the case of `Cc1cc(Nc2ccc3c(c2)c(-c2ccc(N)cc2)[n+](C)c2cc(N)ccc32)nc(N)[n+]1C.[Br-].[Br-]` [Prothidium, pyrithidium bromide], the “No. Cured Out of Total Treated” value (T. brucei TREU 667/1 [3]; Prothidium 10.0 mg./kg. day 21, no further treatment) is reported as 0/8 and the “time after treatment until signs of relapse” value (T. brucei TREU 667/1 [3]) is reported as 6-7 months.

With `CC[n+]1c(-c2ccccc2)c2cc(N/N=N/c3cccc(C(=N)N)c3)ccc2c2ccc(N)cc21` [Samorin, isometamidium] the “No. Cured Out of Total Treated” value (T. brucei TREU 667/1 [3]; Samorin 2.0 mg./kg. day 21, no further treatment) was 0/10 and the “time after treatment until signs of relapse” value (T. brucei TREU 667/1 [3]) was 6-7 months.
